Columns and labels:
rat MSCs = assay: Chondrogenic differentiation of MSCs, GAG by Alcian blue staining; format: cell-based; details: 10 μM peptide in medium with dexamethasone and TGF-β3, 21 days; DMSO control 0.15±0.024
Method: Adult 8-wk-old male Sprague-Dawley rats were anesthetized with an intraperitoneal injection of Xylazine (10 mg/kg). After that, their femurs were aseptically harvested, washed in a mixture of PBS and antibiotics for 5 minutes, and then they were dissected off of all soft tissue, transected at their epiphysis, and their marrow cavity rinsed repeatedly with a mixture of heparin (AGGLUTEX INJ 5000 U/ML 5 ML; working conc. 100 U/ml) and DMEM. The harvested cells were collected, dispersed by pipetting, and centrifuged at 1000×g for 5 minutes at RT. Cell pellets were resuspended with DMEM, and then the cell suspension was transferred to a 15-ml centrifuge tube containing 5 ml of Percoll (1.073 g/ml). […]
For Alcian blue staining, cultures were rinsed twice with PBS, fixed in 4% (w/v) paraformaldehyde for 15 min, and then incubated in 1% (w/v) Alcian blue 8-GX (Sigma) in 0.1 N HCl (pH 1.0) overnight as previously described (Ji Y. H. et al., Quantitative proteomics analysis of chondrogenic differentiation of C3H10T1/2 mesenchymal stem cells by iTRAQ labeling coupled with on-line two-dimensional LC/MS/MS, Mol. Cell. Proteom., 2010, 9(3): 550-564.). For semi-quantitative analysis, Alcian blue-stained cultures were extracted with 6 M guanidine HCl for 2 h at room temperature. The absorption of the extracted dye was measured at 650 nm in a microplate reader (Bio-Rad). […]

[1] = tested on: rat model of MIA-induced OA; assay: MIA-induced hind paw weight-bearing shift (incapacitance tester), rat OA model; format: in vivo; details: for MIA-induced weight shift (hind paw weight-bearing): vehicle/HA 75.9±4.7%
Method: (§1) Adult 10-wk-old male Sprague-Dawley rats (initial body wt=312±11 g) were anesthetized by an intraperitoneal injection of Xylazine (10 mg/kg). After that, their right knees were each treated with a single intraarticular injection of 1 mg of MIA in 25 μl of sterile saline. The solution was injected through the patellar ligament using a 27 G needle with the leg flexed at a 90° angle at the knee. Seven days after MIA injection, the […] were randomly assigned to different experimental groups (n 3, each group). For treatments of the rat model of MIA-induced OA, PDSP peptide was dissolved in 25 μl of 1% HA, and the peptide solvent DMSO was used as a vehicle/HA control.
Changes in hind paw weight distributions between the right (osteoarthritic) and left (contralateral control) limbs were used as an index of joint discomfort in the osteoarthritic knee. An incapacitance tester was employed for determination of hind paw weight distributions, as previously described (Bove et al., Weight bearing as a measure of disease progression and efficacy of anti-inflammatory compounds in a model of monosodium iodoacetate-induced osteoarthritis. Osteoarth Cart., 2003; 11:821-830). Rats were placed in an angled plexiglass chamber positioned so that each hind paw rested on a separate force plate. The force exerted by each hind limb (measured in grams) is averaged over a 5-s period. Each data point is the mean of three, 5-s readings. The change in hind paw weight distribution was calculated by determining the difference in the amounts of weights (g) exerted on the tester between the left and right limbs. Results are presented as either the difference in weight bearing between the left (contralateral control) limb and right (osteoarthritic) limbs or as the percent difference between the baseline reading and the post-treatment reading, as calculated using the following equation:
(1−(mean Δweight of treated group/mean Δ weight of vehicle group))×(100)
To investigate whether PDSP (PEDF short peptide) has antinociceptive effects to ameliorate the joint discomfort, 10-wk-old male Sprague-Dawley rats (n=15) were subjected to intraarticular injection of 1 mg of MIA (dissolved in 25 μl of sterile saline) into right joint to induce a maximum degree of weight shift (from right to left leg) and then used to investigate the pharmacologic response of the 29-mer PDSP (SEQ ID NO:1). […]
In the animal study, the 29-mer PDSP variants were formulated into 1% HA to final a concentration of 0.2 mM and then applied by way of a single intraarticular injection each on day 1 and day 8 post-MIA injection. After 29-mer variant treatments for 14 days, the antinociceptive effects of the 29-mer variants (n=3 per group) on MIA-induced hind paw weight-bearing shifts were evaluated with an incapacitance tester.

[2] = tested on: chondrogenic cells in damaged articular cartilage; assay: In vivo DNA synthesis: BrdU / Sox9 staining of damaged articular cartilage, MIA-induced OA; set-up: species or system rat
Method: as §1
For detection of cell proliferation, BrdU was reconstituted in DMSO as stock (80 mM). […] DNA synthesis was assessed by BrdU labeling, as detected with anti-BrdU antibodies.
To detect DNA synthesis in vivo, paraffin-embedded joint specimens were deparaffinized in xylene and rehydrated in a graded series of ethanol and then exposed to 1 N HCl at RT for 1 h for subsequent immunohistochemistry. […] Images were captured using a Zeiss epifluorescence microscope with a CCD camera and measured from 20 randomly-selected areas in each sample, and blind quantification was performed in triplicate by manually counting within each section. […]

[3] = tested on: MIA-damaged articular cartilage; assay: Histological examination (H&E) of MIA-damaged articular cartilage; format: in vivo, rat; details: 29-mer/HA from day 8 post-MIA for 2 weeks
Method: as §1
The knee joints were dissected, and the surrounding soft tissue was removed. Specimens were fixed in a 4% paraformaldehyde (PFA) solution and then were decalcified with Shandon TBD-2 decalcifier (Thermo Scientific, Logan, Utah). The joints were then sectioned mid-sagittally and embedded in paraffin blocks. Sections (5 μm in thickness) were longitudinally cut and stained with hematoxylin and eosin (H&E) or used for immunohistochemical examination. 20 sections per knee were carefully prepared so as to include the most severely degenerated area.
It has been established that rat knee joints injected with MIA can result in extensive chondrocyte degeneration/necrosis at day 7 post-MIA treatment in a rapid and reproducible manner. […]

## SLGAEQRTESIIHRALYYDLISSPDIHGT (in 1% hyaluronic acid; listed as Homo sapiens) [29-mer, PEDF-derived short peptide, human PEDF residues 93-121]
Rat MSCs
  Alcian blue-positive material (GAG) at OD 650 nm: 0.34±0.013
[1]; group II: 0.2 mM 29-mer in 1% HA, intraarticular on day 1, 4, 8, 12 (twice per week), 14 days
  MIA-induced weight shift (hind paw weight-bearing): 63.3±12.5%
[1]; group III: 29-mer alone (bolus, without HA), intraarticular day 1, 4, 8, 12
  MIA-induced weight shift (hind paw weight-bearing): 77.2±1.2%
[1]; group IV: 29-mer/HA, intraarticular once on day 1 and day 8 (once per week), 14 days
  MIA-induced weight shift (hind paw weight-bearing): 58.1±4.6%
[1]; variant study (FIG. 4): 0.2 mM peptide in 1% HA, intraarticular day 1 and day 8, after 14 days, vehicle/HA 47.1±3.7%
  MIA-induced hind paw weight-bearing shift: 22.0±0.66%
[2]; 0.2 mM 29-mer/HA, dual immunostaining, FIG. 5A
  Sox9 immunostaining of BrdU-positive cells: BrdU-positive cells were also Sox9 positive
[2]; 0.2 mM peptide in 1% HA, 14 days treatment, vehicle/HA 7±3
  BrdU-positive cells per field of cartilage region: 346±57
[3]; vehicle/HA: chondrocytes lost from superficial zone
  Chondrocytes in cartilage, H&E histology: large numbers of newly generated chondrocytes throughout the cartilage
[3]; vehicle/HA: loss of cartilage integrity
  Cartilage integrity, H&E histology: good surface continuity

From patent US20210221862A1, “APPLICATION OF PEDF-DERIVED SHORT PEPTIDES IN THE TREATMENT OF OSTEOARTHRITIS” (BRIM Biotechnology, Inc., priority 2018, published 2021)
